Several values for one entry are separate records, joined by “and”; a condition that tells them apart may be missing. Equal values may be shown once.

For experiment [1], the system named is cockroaches. Kind of experiment: LD50 and LD10 of mineral oils and alcohols, dose-response mortality, probit analysis (Example 9). The class given is in vivo, Blattella germanica. The conditions noted are these: 95% CI printed in the line below. As to the method: In this example, various mineral oils and alcohols were tested to determine, for cockroaches, the LD50 and LD10 for each.
PD23 and PD28 mineral oils were obtained from Sonneborn LLC, Mahwah, N.J. The physical properties of these oils are shown in Table 11. Each mineral oil was tested to determine the LD50 and LD10 (Table 12).
The tested alcohols were obtained from Sigma-Aldrich Corp., St. Louis, Mo. Each alcohol was tested to determine the LD50 and LD10 (Table 12).

In experiment [2] the test system is cockroaches. Put plainly: Topical toxicity test of alcohols and/or PD23 mineral oil, dead at 24 h (Example 10). The class given is in vivo, Blattella germanica. The procedure: (§1) Toxicity evaluations were performed on 7-14 day old adult male and female German cockroaches (SCJ Strain, S.C. Johnson & Son, Racine, Wis.). Approximately 12 cockroaches were transferred to individual 100×20 mm polystyrene Petri dishes and anesthetized with a 15-25 second exposure to carbon dioxide. The inside edge of each Petri dish was lightly coated with mineral oil plus petroleum jelly in a 1:3 (wt/wt) ratio to minimize escape. Anesthetized cockroaches were positioned with their ventral side up, and a 1 μl drop of the diluted test composition was applied to the area between the meso- and metathoracic legs using a Rainin L-10, 10 μl capacity pipette (Rainin Instrument, LLC, Oakland, Calif.). Five replications of 12 male cockroaches were done for each test composition. Separate tests were done using female cockroaches. Results were evaluated at 24 hours following treatment. Cockroaches were scored as either alive (dorsal side up, active movement when abdomen prodded with dissecting probe) or moribund/dead (dorsal side up and no movement when abdomen prodded or ventral side up and insect unable to right itself).
The compositions comprising alcohol and/or mineral oil are described in Table 13.

Experiment [3] relates to cockroaches. Kind of experiment: 1-propanol and 1-heptanol alone and in combination with Exxsol D95 mineral oil (Example 17). It is filed as in vivo. To be noted: for # dead at 24 h / Proportion dead at 24 h: individual treatment; for synergy with EXXSOL D95: result in words.
The next experiment has as its system cockroaches (all male). Kind of experiment: Topical toxicity test of mineral oil and/or hexylene glycol, isopropyl myristate, dioxane or d-limonene in acetone (Examples 3-6). It is filed as in vivo, Blattella germanica. The conditions noted are these: 24 hours; for # dead: 1 μl topical, remainder acetone. The procedure: as §1, with “itself). […]” for “itself).”
Tests were generally performed as described in Example 1, except the number of cockroaches (all male) tested for each composition is set forth below in Table 6, and the compositions were not further diluted with acetone in a 1:1 (wt/wt) ratio prior to testing. The results are shown in Table 6, which lists the number of cockroaches tested for each composition, the number of dead cockroaches out of the total number of cockroaches tested, the square root percent dead cockroaches, the proportion of dead cockroaches, and the arcsine square root percent dead cockroaches.
Tests were generally performed as described in Example 1, except the number of cockroaches (all male) tested for each composition is set forth below in Table 7, and the compositions were not further diluted with acetone in a 1:1 (wt/wt) ratio prior to testing. The results are shown in Table 7, which lists the number of cockroaches tested for each composition, the number of dead cockroaches out of the total number of cockroaches tested, the square root percent dead cockroaches, the proportion of dead cockroaches, and the arcsine square root percent dead cockroaches.

[4] abbreviates: Table 14, composite data of the replicates.
Where [5] appears, read: Table 14, composite data, calculated proportion.

For `CO` [Methanol], the LD10 mg/insect entry with cockroaches [1] is “Estimated at ~3.000 mg/insect”. Besides, in the experiment with cockroaches [1], the LD50 mg/insect is recorded as greater than 7.00 mg/insect. In addition, the “# dead at 24 h” value was 0 (2×) and 1 with cockroaches [2] (Table 13, per replicate of 10-16 treated cockroaches, mg per insect in the label, listed as methanol (3.0 mg)); 1 in the experiment with cockroaches [2] (setting [4]). Also, the “Proportion dead at 24 h” value was 0.000 (2×) and 0.077 with cockroaches [2] (Table 13, per replicate, listed as methanol (3.0 mg)); 0.026 with cockroaches [2] (setting [5]).
In the experiment on cockroaches [1], 1-propanol [Composition 1-propanol] registered an LD10 mg/insect of 0.472 mg/insect. In addition, the LD50 mg/insect in the experiment on cockroaches [1] turned out to be 0.557 mg/insect. Further, the “# dead at 24 h” value was 1 and 0 (2×) in the experiment with cockroaches [2] (Table 13, per replicate of 10-16 treated cockroaches, mg per insect in the label, listed as 1-propanol (0.45 mg)); 1 in the experiment on cockroaches [2] (setting [4]); 1 with cockroaches [3] (0.45 mg). Also, the “Proportion dead at 24 h” value in the experiment on cockroaches [2] (Table 13, per replicate, listed as 1-propanol (0.45 mg)) was 0.083 and 0.000 (2×); in the experiment with cockroaches [2] (setting [5]), 0.028; with cockroaches [3] (0.45 mg) it was 0.028. Further, the “synergy with EXXSOL D95” value in the experiment on cockroaches [3] is on record as “significant synergy”.
For the compound 1-butanol [Composition 1-butanol], the LD10 mg/insect with cockroaches [1] worked out at 0.877 mg/insect. Also, the LD50 mg/insect with cockroaches [1] is recorded as 1.018 mg/insect. For the same compound, the “# dead at 24 h” value in the experiment on cockroaches [2] (Table 13, per replicate of 10-16 treated cockroaches, mg per insect in the label, listed as 1-butanol (0.8 mg)) is 0 (2×) and 1; in the experiment on cockroaches [2] (setting [4]), 1. Also, the “Proportion dead at 24 h” value with cockroaches [2] (Table 13, per replicate, listed as 1-butanol (0.8 mg)) is 0.000 (2×) and 0.100; in the experiment with cockroaches [2] (setting [5]) it was 0.029.
Consider `C1COCCO1` [Dioxane (50%), Dioxane], for which, in the experiment on cockroaches (all male) (Table 6, per replicate), the “# dead” value was 0 (4×) and 1; the “Arcsine square root % dead” value came to 0; the Proportion dead stood at 0; the “Square root % dead” value is reported as 0.
2-butanol [Composition 2-butanol] gave an LD10 mg/insect in the experiment with cockroaches [1] of 0.881 mg/insect. In the experiment with cockroaches [1], this compound displayed an LD50 mg/insect of 1.188 mg/insect. Besides, the “# dead at 24 h” value in the experiment with cockroaches [2] (Table 13, per replicate of 10-16 treated cockroaches, mg per insect in the label, listed as 2-butanol (0.8 mg)) is 0 (2×) and 1; in the experiment with cockroaches [2] (setting [4]), 1. In addition, the “Proportion dead at 24 h” value with cockroaches [2] (Table 13, per replicate, listed as 2-butanol (0.8 mg)) is 0.000 (2×) and 0.083; with cockroaches [2] (setting [5]) it was 0.026.
For the compound `C=C(C)[C@H]1CC=C(C)CC1` [d-limonene (40%), d-limonene], in the experiment with cockroaches (all male) (Table 7, per replicate), the “# dead” value is 1 and 0 and 2 (2×); the “Arcsine square root % dead” value is 0; the Proportion dead came out at 0; the “Square root % dead” value came to 0.
With `CCCCCCCO` [Composition 1-heptanol, 1-heptanol], the “# dead at 24 h” value in the experiment with cockroaches [2] (setting [4]) and in the experiment on cockroaches [3] (0.40 mg) was 1 in each case. Besides, the “Proportion dead at 24 h” value in the experiment on cockroaches [2] (setting [5]) and in the experiment on cockroaches [3] (0.40 mg) was 0.028 each time. In addition, in the experiment on cockroaches [3], the “synergy with EXXSOL D95” value is reported as “significant synergy”.
As to `OCCc1ccccc1` [2-phenylethanol], in the experiment with cockroaches [1], the LD10 mg/insect is 0.075 mg/insect. For the same compound, the “# dead at 24 h” value with cockroaches [2] (setting [4]) worked out at 5. In the experiment with cockroaches [2] (setting [5]), the “Proportion dead at 24 h” value is 0.106.

Source of the values: patent publication US8231887B2, “Pesticidal compositions” (BASF Corporation, priority 2008, dated 2012).
